Source: PubChem BioAssay AID1259407 (Chemical Carcinogenesis Research Information System (CCRIS), 2018)
Calls of active or inactive are those of the source. How the calls were made is not given here.

Tested on: CCRIS mutagenicity, Ames/micronucleus/aberration tests
Assay: CCRIS mutagenicity studies
[1] = Test System: AMES SALMONELLA TYPHIMURIUM, Strain/Indicator: TA98, Metabolic Activation: NONE, Method: STANDARD PLATE
[2] = Test System: AMES SALMONELLA TYPHIMURIUM, Strain/Indicator: TA98, Metabolic Activation: RAT, LIVER, S-9, AROCLOR 1254, Method: STANDARD PLATE
[3] = Test System: AMES SALMONELLA TYPHIMURIUM, Strain/Indicator: TA100, Metabolic Activation: NONE, Method: STANDARD PLATE
[4] = Test System: AMES SALMONELLA TYPHIMURIUM, Strain/Indicator: TA100, Metabolic Activation: RAT, LIVER, S-9, AROCLOR 1254, Method: STANDARD PLATE
[5] = Test System: AMES SALMONELLA TYPHIMURIUM, Strain/Indicator: TA1535, Metabolic Activation: NONE, Method: STANDARD PLATE
[6] = Test System: AMES SALMONELLA TYPHIMURIUM, Strain/Indicator: TA1535, Metabolic Activation: RAT, LIVER, S-9, AROCLOR 1254, Method: STANDARD PLATE
[7] = Test System: AMES SALMONELLA TYPHIMURIUM, Strain/Indicator: TA1537, Metabolic Activation: NONE, Method: STANDARD PLATE
[8] = Test System: AMES SALMONELLA TYPHIMURIUM, Strain/Indicator: TA1537, Metabolic Activation: RAT, LIVER, S-9, AROCLOR 1254, Method: STANDARD PLATE
[9] = Test System: AMES SALMONELLA TYPHIMURIUM, Strain/Indicator: TA1538, Metabolic Activation: NONE, Method: STANDARD PLATE
[10] = Test System: AMES SALMONELLA TYPHIMURIUM, Strain/Indicator: TA1538, Metabolic Activation: RAT, LIVER, S-9, AROCLOR 1254, Method: STANDARD PLATE
[11] = Test System: AMES SALMONELLA TYPHIMURIUM, Strain/Indicator: TA98, Metabolic Activation: NONE, Method: PREINCUBATION
[12] = Test System: AMES SALMONELLA TYPHIMURIUM, Strain/Indicator: TA100, Metabolic Activation: NONE, Method: PREINCUBATION
[13] = Test System: AMES SALMONELLA TYPHIMURIUM, Strain/Indicator: TA1535, Metabolic Activation: NONE, Method: PREINCUBATION
[14] = Test System: AMES SALMONELLA TYPHIMURIUM, Strain/Indicator: TA1537, Metabolic Activation: NONE, Method: PREINCUBATION
[15] = Test System: AMES SALMONELLA TYPHIMURIUM, Strain/Indicator: TA1538, Metabolic Activation: NONE, Method: PREINCUBATION

Structure (SMILES): CC(C)Nc1nc(Cl)nc(NC(C)C)n1
- mutagenic call (Test System: AMES SALMONELLA TYPHIMURIUM, Strain/Indicator: TA97, Metabolic Activation: NONE, Method: STANDARD PLATE): inactive; negative
- mutagenic call (Test System: AMES SALMONELLA TYPHIMURIUM, Strain/Indicator: TA97, Metabolic Activation: RAT, LIVER, S-9, AROCLOR 1254, Method: STANDARD PLATE): inactive; negative
- mutagenic call (Test System: AMES SALMONELLA TYPHIMURIUM, Strain/Indicator: TA97A, Metabolic Activation: NONE, Method: STANDARD PLATE): inactive; negative
- mutagenic call (Test System: AMES SALMONELLA TYPHIMURIUM, Strain/Indicator: TA97A, Metabolic Activation: RAT, LIVER, S-9, AROCLOR 1254, Method: STANDARD PLATE): inactive; negative
- mutagenic call [1]: inactive; negative
- mutagenic call [2]: inactive; negative
- mutagenic call [3]: inactive; negative
- mutagenic call [4]: inactive; negative
- mutagenic call (Test System: AMES SALMONELLA TYPHIMURIUM, Strain/Indicator: TA102, Metabolic Activation: NONE, Method: STANDARD PLATE): inactive; negative
- mutagenic call (Test System: AMES SALMONELLA TYPHIMURIUM, Strain/Indicator: TA102, Metabolic Activation: RAT, LIVER, S-9, AROCLOR 1254, Method: STANDARD PLATE): inactive; negative
- mutagenic call [5]: inactive; negative
- mutagenic call [6]: inactive; negative
- mutagenic call [7]: inactive; negative
- mutagenic call [8]: inactive; negative
- mutagenic call [9]: inactive; negative
- mutagenic call [10]: inactive; negative

Structure (SMILES): CC(C)NCC(=O)NC(=O)C=[N+]=[N-]
- mutagenic call (Test System: UDS RODENT CELLS, Strain/Indicator: THY INCORP (NON-S-PHASE), Metabolic Activation: NONE, Method: AUTORADIOGRAPHY): active; positive

Structure (SMILES): CC(=O)N(Nc1ccc2c(c1)Cc1ccccc1-2)c1ccc2c(c1)Cc1ccccc1-2
- mutagenic call [2]: active; positive

Structure (SMILES): COc1ccc(Cc2cnc(N)nc2N)cc1OC
- mutagenic call (Test System: AMES SALMONELLA TYPHIMURIUM, Strain/Indicator: TA98, Metabolic Activation: HAMSTER, LIVER, S-9, PHENOBARBITAL AND BETA-NAPHTHOFLAVONE, Method: PREINCUBATION): inactive; negative
- mutagenic call [11]: inactive; negative
- mutagenic call (Test System: AMES SALMONELLA TYPHIMURIUM, Strain/Indicator: TA98, Metabolic Activation: RAT, LIVER, S-9, PHENOBARBITAL AND BETA-NAPHTHOFLAVONE, Method: PREINCUBATION): inactive; negative
- mutagenic call (Test System: AMES SALMONELLA TYPHIMURIUM, Strain/Indicator: TA100, Metabolic Activation: HAMSTER, LIVER, S-9, PHENOBARBITAL AND BETA-NAPHTHOFLAVONE, Method: PREINCUBATION): active; positive
- mutagenic call [12]: inactive; negative
- mutagenic call (Test System: AMES SALMONELLA TYPHIMURIUM, Strain/Indicator: TA100, Metabolic Activation: RAT, LIVER, S-9, PHENOBARBITAL AND BETA-NAPHTHOFLAVONE, Method: PREINCUBATION): inactive; negative
- mutagenic call (Test System: E.COLI, Strain/Indicator: WP2UVRA/PKM101, Metabolic Activation: NONE, Method: PREINCUBATION): inactive; negative
- mutagenic call (Test System: E.COLI, Strain/Indicator: WP2UVRA/PKM101, Metabolic Activation: RAT LIVER S-9, PHENOBARBITAL AND 5,6-BENZOFLAVONE, Method: PREINCUBATION): inactive; negative

Structure (SMILES): CC1CCc2c(N3CCC(O)CC3)c(F)cc3c(=O)c(C(=O)O)cn1c23 (configuration not stated)
- mutagenic call [11]: inactive; negative
- mutagenic call (Test System: AMES SALMONELLA TYPHIMURIUM, Strain/Indicator: TA98, Metabolic Activation: RAT, LIVER, S-9, NADPH, Method: PREINCUBATION): inactive; negative
- mutagenic call [12]: inactive; negative
- mutagenic call (Test System: AMES SALMONELLA TYPHIMURIUM, Strain/Indicator: TA100, Metabolic Activation: RAT, LIVER, S-9, NADPH, Method: PREINCUBATION): inactive; negative
- mutagenic call [13]: inactive; negative
- mutagenic call (Test System: AMES SALMONELLA TYPHIMURIUM, Strain/Indicator: TA1535, Metabolic Activation: RAT, LIVER, S-9, NADPH, Method: PREINCUBATION): inactive; negative
- mutagenic call [14]: inactive; negative
- mutagenic call (Test System: AMES SALMONELLA TYPHIMURIUM, Strain/Indicator: TA1537, Metabolic Activation: RAT, LIVER, S-9, NADPH, Method: PREINCUBATION): inactive; negative
- mutagenic call [15]: inactive; negative
- mutagenic call (Test System: AMES SALMONELLA TYPHIMURIUM, Strain/Indicator: TA1538, Metabolic Activation: RAT, LIVER, S-9, NADPH, Method: PREINCUBATION): inactive; negative
- mutagenic call (Test System: E. COLI, Strain/Indicator: WP2 UVRA, Metabolic Activation: RAT, LIVER, S-9, NADPH, Method: PREINCUBATION): inactive; negative
- mutagenic call (Test System: E.COLI, Strain/Indicator: WP2 UVRA, Metabolic Activation: NONE, Method: PREINCUBATION): inactive; negative

Structure (SMILES): CN(C)CCNC(=O)c1cccn2cc(-c3ccccc3)nc12
- mutagenic call [7]: active; positive

Structure (SMILES): O=C(Nc1ccc2c(O)c(N=Nc3ccc(N=Nc4ccc(S(=O)(=O)O)cc4)cc3)c(S(=O)(=O)O)cc2c1)c1ccccc1
- mutagenic call [1]: inactive; negative
- mutagenic call [2]: inactive; negative
- mutagenic call [3]: inactive; negative
- mutagenic call [4]: inactive; negative
- mutagenic call [5]: inactive; negative
- mutagenic call [6]: inactive; negative
- mutagenic call [7]: inactive; negative
- mutagenic call [8]: inactive; negative
- mutagenic call [9]: inactive; negative
- mutagenic call [10]: inactive; negative

Structure (SMILES): CSCCC=O
- mutagenic call [11]: inactive; negative
- mutagenic call (Test System: AMES SALMONELLA TYPHIMURIUM, Strain/Indicator: TA98, Metabolic Activation: RAT LIVER S-9, AROCLOR 1254, Method: PREINCUBATION): inactive; negative
- mutagenic call [12]: inactive; negative
- mutagenic call (Test System: AMES SALMONELLA TYPHIMURIUM, Strain/Indicator: TA100, Metabolic Activation: RAT LIVER S-9, AROCLOR 1254, Method: PREINCUBATION): inactive; negative
- mutagenic call [13]: inactive; negative
- mutagenic call (Test System: AMES SALMONELLA TYPHIMURIUM, Strain/Indicator: TA1535, Metabolic Activation: RAT LIVER S-9, AROCLOR 1254, Method: PREINCUBATION): inactive; negative
- mutagenic call [14]: inactive; negative
- mutagenic call (Test System: AMES SALMONELLA TYPHIMURIUM, Strain/Indicator: TA1537, Metabolic Activation: RAT LIVER S-9, AROCLOR 1254, Method: PREINCUBATION): inactive; negative
- mutagenic call [15]: inactive; negative
- mutagenic call (Test System: AMES SALMONELLA TYPHIMURIUM, Strain/Indicator: TA1538, Metabolic Activation: RAT LIVER S-9, AROCLOR 1254, Method: PREINCUBATION): inactive; negative
- mutagenic call (Test System: MOUSE LYMPHOMA, Strain/Indicator: L5178Y (TK+/TK-), Metabolic Activation: NONE, Method: SUSPENSION/PLATE): active; positive
- mutagenic call (Test System: MOUSE LYMPHOMA, Strain/Indicator: L5178Y (TK+/TK-), Metabolic Activation: RAT LIVER S-9, AROCLOR 1254, Method: SUSPENSION/PLATE): active; positive

Structure (SMILES): CN(C)C(=N)N(C)C
- mutagenic call [11]: inactive; negative
- mutagenic call (Test System: AMES SALMONELLA TYPHIMURIUM, Strain/Indicator: TA98, Metabolic Activation: RAT, LIVER, S-9, PCB, Method: PREINCUBATION): inactive; negative
- mutagenic call [12]: inactive; negative
- mutagenic call (Test System: AMES SALMONELLA TYPHIMURIUM, Strain/Indicator: TA100, Metabolic Activation: RAT, LIVER, S-9, PCB, Method: PREINCUBATION): inactive; negative

Structure (SMILES): CNN(C)c1ccn([C@@H]2O[C@H](CO)[C@@H](O)[C@H]2O)c(=O)n1
- mutagenic call (Test System: CHINESE HAMSTER V-79, Strain/Indicator: V-79/6-THIOGUANINE, Metabolic Activation: NONE, Method: REPLATING): inactive; negative

Structure (SMILES): COc1c(O)cc(Cl)cc1Cl
- mutagenic call (Test System: CHINESE HAMSTER V-79, Strain/Indicator: V-79/6-THIOGUANINE, Metabolic Activation: NONE, Method: STANDARD PLATE): inactive; negative
